Experimental data taken from BindingDB's records for doi:10.1021/acs.jmedchem.8b00605 (Leiden University, 2018).

Molecular target: T1, C-C chemokine receptor type 1 (Homo sapiens, UniProt P32246)
T1 sequence (P32246 whole entry): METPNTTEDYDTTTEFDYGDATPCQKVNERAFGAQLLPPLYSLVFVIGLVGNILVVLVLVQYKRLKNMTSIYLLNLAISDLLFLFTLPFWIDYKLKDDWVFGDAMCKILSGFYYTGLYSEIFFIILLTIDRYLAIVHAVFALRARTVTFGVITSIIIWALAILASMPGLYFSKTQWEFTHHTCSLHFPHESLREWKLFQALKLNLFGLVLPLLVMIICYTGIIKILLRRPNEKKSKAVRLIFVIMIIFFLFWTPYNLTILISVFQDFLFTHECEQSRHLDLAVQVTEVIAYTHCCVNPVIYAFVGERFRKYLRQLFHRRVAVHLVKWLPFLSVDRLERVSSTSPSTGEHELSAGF
Test: Displacement of [3H]-CCR2-RA-[R] from human TEV protease site linked CCR1 expressed in human U20S cell membranes co-expressing Gal4-VP16 transcription factor after 120 mins by scintillation spectrometry

Ki: 10 nM
SMILES: CC(=O)C1=C(O)C(=O)N(c2ccc(Br)cc2F)C1C1CCCCC1 (stereo unspecified)
